{"source": "patent US7910623B2", "about": "“Synthesis of scabronines and analogues thereof” (Sloan-Kettering Institute for Cancer Research, priority 2008, dated 2011)", "key": {"[1]": {"tested_on": "PC-12 cells", "assay": "Neurite outgrowth of PC-12 cells cultured in compound-conditioned 1321N1 medium", "format": "cell-based, rat", "details": "1321N1 medium conditioned with compound at 30 μM for 48 hours, PC-12 3 days; for neurite outgrowth of PC-12 cells: vs DMSO control", "description": "(§1) The 1321N1 human astrocytoma cells were cultured in Dulbecco's modified Eagles's medium (DMEM) supplemented with 2 mM L-Glutamine and 10% fetal bovine serum (FBS). PC-12 cells were grown in F-12K medium supplemented with 15% horse serum and 2.5% FBS. For compound treatment, 1321N1 cells were incubated with compounds 2 and 8 at 30 μM for 48 hours in DMEM medium. The resulting conditioned media from the 1321N1 cells were used to culture PC-12 cell for induction of PC-12 neurite outgrowth. After 3 days incubation, PC-12 cells were washed with phosphate-buffered saline (PBS) and fixed with 4% paraformaldeyde. Neurites were observed under a phase-contrast ECLIPSE TE2000-S Nikon microscope.\nThe differentiation of PC-12 cells was scored as follows: cells without neurites were scored 0; cells with neurites as long as one cell body diameter were scored 1; cells with neurites 2-3 times longer than their cell body diameter were scored 2; and cells with neurites that were extremely long or forming a network were scored 3. The mean of differentiation scores were obtained from 200 cells (4 wells) under the phase-contrast microscope. Data are expressed as means±S.E.M (standard error of mean). Values represent the Means±S.E.M. for four wells."}, "[2]": {"tested_on": "1321N1 human astroglial cells", "details": "cited from earlier work"}, "[3]": {"tested_on": "rat pheochromocytoma cells (PC-12)", "details": "cited from earlier work"}, "[4]": {"tested_on": "1321N1 human glial cells", "assay": "Biosynthesis and secretion of neurotrophic factors from 1321N1 cells treated with compound", "format": "cell-based", "details": "30 μM, 48 hours", "description": "as §1"}}, "note": "“Also recorded” adds a separate entry of the source. Read-outs that look alike come from different tables or passages of the source.", "data": [{"smiles": "COC(=O)[C@]12CCC(C(C)C)=C1[C@H]1CCC(C=O)=CC(=O)[C@]1(C)CC2", "note": "[Compound 8]", "values": [{"measurement": "neurite outgrowth of PC-12 cells compared with compound 2 or purified NGF (50 ng/mL)", "setting": "[1]", "value": "greater activity as evidenced by increased neurite length; also recorded: comparable to those produced by direct exposure of PC-12 cells to purified NGF; also recorded: greater potency than compound 2"}, {"measurement": "neurite outgrowth of PC-12 cells", "setting": "[1]", "value": "significantly induced neurite outgrowth"}]}, {"smiles": "CC(C)C1=C2[C@H]3CC=C(C=O)CC(=O)[C@]3(C)CC[C@@]2(C(=O)O)CC1", "note": "[Compound 1, Scabronine G]", "values": [{"measurement": "production and excretion of nerve growth factor (NGF)", "setting": "[2]", "value": "induce the production and excretion of nerve growth factor (NGF)"}, {"measurement": "production and excretion of nerve growth factor (NGF)", "setting": "[2]; listed as scabronine G", "value": "induces the production and excretion of nerve growth factor (NGF)"}, {"measurement": "neuronal differentiation of PC-12 cells", "setting": "[3]", "value": "dramatic neuronal differentiation"}]}, {"smiles": "COC(=O)[C@]12CCC(C(C)C)=C1[C@H]1CC=C(C=O)CC(=O)[C@]1(C)CC2", "note": "[Compound 2, Scabronine G Methyl Ester]", "values": [{"measurement": "neurite outgrowth of PC-12 cells compared with compound 2 or purified NGF (50 ng/mL)", "setting": "[1]", "value": "comparable to those produced by direct exposure of PC-12 cells to purified NGF; also recorded: same degree of neurite outgrowth as that of 50 ng/mL of NGF"}, {"measurement": "neurite outgrowth of PC-12 cells", "setting": "[1]", "value": "significant neurite outgrowth; also recorded: significantly induced neurite outgrowth"}, {"measurement": "biosynthesis and secretion of neurotrophic factors", "setting": "[4]", "value": "effectively enhanced the biosynthesis and secretion of neurotrophic factors"}, {"measurement": "neuronal differentiation of PC-12 cells", "setting": "[3]", "value": "dramatic neuronal differentiation"}]}]}
